Values of other authors as cited in US20170119792A1, “METHODS AND COMPOSITIONS FOR DERMATOLOGICAL USE COMPRISING CLOBETASOL AND HALOBETASOL AND BIOPOLYMERS” (APEX LABORATORIES PRIVATE LIMITED, priority 2015, published 2017).

solubility in water | Compound
insoluble in water | CCC(=O)O[C@]1(C(=O)CCl)[C@@H](C)C[C@H]2[C@@H]3CCC4=CC(=O)C=C[C@]4(C)[C@@]3(F)[C@@H](O)C[C@@]21C [Clobetasol propionate, (11β, 16β)-21-chloro-9-fluoro-11-hydroxy-16-methyl-17-(1-oxopropoxy)-pregna-1,4-diene-3, 20-dione]
insoluble in water | CCC(=O)O[C@]1(C(=O)CCl)[C@@H](C)C[C@H]2[C@@H]3C[C@H](F)C4=CC(=O)C=C[C@]4(C)[C@@]3(F)[C@@H](O)C[C@@]21C [Halobetasol propionate, 21-chloro-6α, 9-difluoro-11β, 17-dihydroxy-16β-methylpregna-1,4-diene-3, 20-dione17-propionate]
